In patent US9120770B2, “Substituted pyridine and pyrazine compounds as PDE4 inhibitors” (DART NEUROSCIENCE (CAYMAN) LTD., priority 2013, dated 2015):

biological target: PDE4D3 (Homo sapiens, UniProt Q08499)
Sequence (Q08499 1-673 isoform Q08499-2): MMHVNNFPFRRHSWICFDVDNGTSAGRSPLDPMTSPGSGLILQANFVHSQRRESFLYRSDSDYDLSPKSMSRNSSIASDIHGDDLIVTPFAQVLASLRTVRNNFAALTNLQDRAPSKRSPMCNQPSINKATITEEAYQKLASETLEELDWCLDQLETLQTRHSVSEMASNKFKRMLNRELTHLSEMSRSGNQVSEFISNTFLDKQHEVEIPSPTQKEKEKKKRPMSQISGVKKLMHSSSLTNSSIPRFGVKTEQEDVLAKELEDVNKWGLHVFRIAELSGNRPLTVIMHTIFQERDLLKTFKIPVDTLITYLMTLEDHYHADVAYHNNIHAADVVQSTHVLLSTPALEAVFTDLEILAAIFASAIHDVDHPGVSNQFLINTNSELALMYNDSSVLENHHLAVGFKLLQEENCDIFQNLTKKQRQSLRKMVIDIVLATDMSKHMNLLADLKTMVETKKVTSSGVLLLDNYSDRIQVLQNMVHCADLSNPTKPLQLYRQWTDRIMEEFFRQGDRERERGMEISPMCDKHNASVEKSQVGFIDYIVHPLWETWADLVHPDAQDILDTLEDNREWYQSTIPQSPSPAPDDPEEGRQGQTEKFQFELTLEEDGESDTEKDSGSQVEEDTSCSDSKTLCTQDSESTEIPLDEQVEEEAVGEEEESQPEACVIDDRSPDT

SMILES	EC50 [nM]
COc1ncc(Cn2cncn2)cc1-c1cccc(OC(F)(F)F)c1 [Example 137, 2-Methoxy-5-(1H-1,2,4-triazol-1-ylmethyl)-3-[3-(trifluoromethoxy)phenyl]pyridine]	100 to 1000
COc1ncc(Cn2cnnc2C)cc1-c1cccc(Cl)c1 [Example 138, 3-(3-Chlorophenyl)-2-methoxy-5-[(3-methyl-4H-1,2,4-triazol-4-yl)methyl]pyridine]	1000 to 10000
COc1ncc(Cn2cncn2)cc1-c1cc(F)cc(F)c1 [Example 139, 3-(3,5-Difluorophenyl)-2-methoxy-5-(1H-1,2,4-triazol-1-ylmethyl)pyridine]	100 to 1000
COC(=O)c1ncnn1Cc1cnc(OC)c(-c2cccc(Cl)c2)c1 [Example 140, Methyl 1-{[5-(3-chlorophenyl)-6-methoxypyridin-3-yl]methyl}-1H-1,2,4-triazole-5-carboxylate]	> 10000
COC(=O)c1ncn(Cc2cnc(OC)c(-c3cccc(Cl)c3)c2)n1 [Example 141, Methyl 1-{[5-(3-chlorophenyl)-6-methoxypyridin-3-yl]methyl}-1H-1,2,4-triazole-3-carboxylate]	100 to 1000
COc1ncc(Cn2cncn2)cc1-c1cc(Cl)cs1 [Example 142, 3-(4-Chlorothiophen-2-yl)-2-methoxy-5-(1H-1,2,4-triazol-1-ylmethyl)pyridine]	100 to 1000
COc1ncc(Cn2cnc(C)n2)cc1-c1cccc(Cl)c1 [Example 143, 3-(3-Chlorophenyl)-2-methoxy-5-[(3-methyl-1H-1,2,4-triazol-1-yl)methyl]pyridine]	< 100
COc1ncc(Cn2cncn2)cc1-c1cccc(C(F)F)c1 [Example 144, 3-[3-(Difluoromethyl)phenyl]-2-methoxy-5-(1H-1,2,4-triazol-1-ylmethyl)pyridine]	< 100
COc1ncc(Cn2cccn2)cc1-c1cccc(Cl)c1 [Example 145, 3-(3-Chlorophenyl)-2-methoxy-5-(1H-pyrazol-1-ylmethyl)pyridine]	< 100
COc1ncc(Cn2cnc(C(F)(F)F)n2)cc1-c1cccc(Cl)c1 [Example 146, 3-(3-Chlorophenyl)-2-methoxy-5-{[3-(trifluoromethyl)-1H-1,2,4-triazol-1-yl]methyl}pyridine]	100 to 1000
COc1ncc(Cn2cnc(C3CC3)n2)cc1-c1cccc(Cl)c1 [Example 147, 3-(3-Chlorophenyl)-5-[(3-Cyclopropyl-1H-1,2,4-triazol-1-yl)methyl]-2-methoxypyridine]	100 to 1000
Cc1ncn(Cc2cnc(OC(F)F)c(-c3cccc(Cl)c3)c2)n1 [Example 148, 3-(3-Chlorophenyl)-2-(difluoromethoxy)-5-[(3-methyl-1H-1,2,4-triazol-1-yl)methyl]pyridine]	< 100
COc1ncc(Cn2cnc(C(F)(F)F)c2)cc1-c1cccc(Cl)c1 [Example 149, 3-(3-Chlorophenyl)-2-methoxy-5-{[4-(trifluoromethyl)-1H-imidazol-1-yl]methyl}pyridine]	1000 to 10000
CC(c1cnc(OC(F)F)c(-c2cccc(Cl)c2)c1)n1cncn1 (stereo not shown) [Example 150, 3-(3-Chlorophenyl)-2-(difluoromethoxy)-5-[1-(1H-1,2,4-triazol-1-yl)ethyl]pyridine]	100 to 1000
COc1ncc(Cn2cnc(C)n2)cc1-c1cccc(F)c1 [Example 151, 3-(3-Fluorophenyl)-2-methoxy-5-[(3-methyl-1H-1,2,4-triazol-1-yl)methyl]pyridine]	< 100
CCOc1ncc(Cn2cnc(C(F)(F)F)n2)cc1-c1cccc(Cl)c1 [Example 152, 3-(3-Chlorophenyl)-2-ethoxy-5-{[3-(trifluoromethyl)-1H-1,2,4-triazol-1-yl]methyl}pyridine]	100 to 1000
CCOc1ncc(Cn2ncnc2C(F)(F)F)cc1-c1cccc(Cl)c1 [Example 153, 3-(3-Chlorophenyl)-2-ethoxy-5-{[5-(trifluoromethyl)-1H-1,2,4-triazol-1-yl]methyl}pyridine]	< 100
Cc1cn(Cc2cnc(OC(F)F)c(-c3cccc(Cl)c3)c2)cn1 [Example 154, 3-(3-Chlorophenyl)-2-(difluoromethoxy)-5-[(4-methyl-1H-imidazol-1-yl)methyl]pyridine]	100 to 1000
COc1ncc(Cn2cnc(C)n2)cc1-c1cccc(OC(F)F)c1 [Example 155, 3-[3-(Difluoromethoxy)phenyl]-2-methoxy-5-[(3-methyl-1H-1,2,4-triazol-1-yl)methyl]pyridine]	< 100
N#Cc1ncn(Cc2cnc(OC(F)F)c(-c3cccc(Cl)c3)c2)n1 [Example 156, 1-{[5-(3-Chlorophenyl)-6-(difluoromethoxy)pyridin-3-yl]methyl}-1H-1,2,4-triazole-3-carbonitrile]	1000 to 10000
COCc1ncn(Cc2cnc(OC(F)F)c(-c3cccc(Cl)c3)c2)n1 [Example 157, 3-(3-Chlorophenyl)-2-(difluoromethoxy)-5-{[3-(methoxymethyl)-1H-1,2,4-triazol-1-yl]methyl}pyridine]	100 to 1000
COCc1ncnn1Cc1cnc(OC(F)F)c(-c2cccc(Cl)c2)c1 [Example 158, 3-(3-Chlorophenyl)-2-(difluoromethoxy)-5-{[5-(methoxymethyl)-1H-1,2,4-triazol-1-yl]methyl}pyridine]	1000 to 10000

SMILES	EC50 [nM]
COc1ncc(Cn2cnc(C(F)(F)F)n2)cc1-c1cccc(OC(F)F)c1 [Example 159, 3-[3-(Difluoromethoxy)phenyl]-2-methoxy-5-{[3-(trifluoromethyl)-1H-1,2,4-triazol-1-yl]methyl}pyridine]	100 to 1000
COc1ncc(Cn2ncnc2C(F)(F)F)cc1-c1cccc(OC(F)F)c1 [Example 160, 3-[3-(Difluoromethoxy)phenyl]-2-methoxy-5-{[5-(trifluoromethyl)-1H-1,2,4-triazol-1-yl]methyl}pyridine]	100 to 1000
FC(F)Oc1ncc(Cn2cnnn2)cc1-c1cccc(Cl)c1 [Example 161, 3-(3-Chlorophenyl)-2-(difluoromethoxy)-5-(1H-1,2,3,4-tetrazol-1-ylmethyl)pyridine]	100 to 1000
FC(F)Oc1ncc(Cn2ncnn2)cc1-c1cccc(Cl)c1 [Example 162, 3-(3-Chlorophenyl)-2-(difluoromethoxy)-5-(2H-1,2,3,4-tetrazol-2-ylmethyl)pyridine]	< 100
CCOc1ncc(Cn2cnc(C(F)(F)F)n2)cc1-c1cccc(OC(F)F)c1 [Example 163, 3-[3-(Difluoromethoxy)phenyl]-2-ethoxy-5-{[3-(trifluoromethyl)-1H-1,2,4-triazol-1-yl]methyl}pyridine]	< 100
CCOc1ncc(Cn2ncnc2C(F)(F)F)cc1-c1cccc(OC(F)F)c1 [Example 164, 3-[3-(Difluoromethoxy)phenyl]-2-ethoxy-5-{[5-(trifluoromethyl)-1H-1,2,4-triazol-1-yl]methyl}pyridine]	100 to 1000
CCOc1ncc(Cn2cnc(COC)n2)cc1-c1cccc(OC(F)F)c1 [Example 165, 3-[3-(Difluoromethoxy)phenyl]-2-ethoxy-5-{[3-(methoxymethyl)-1H-1,2,4-triazol-1-yl]methyl}pyridine]	< 100
CCOc1ncc(Cn2ncnc2COC)cc1-c1cccc(OC(F)F)c1 [Example 166, 3-[3-(Difluoromethoxy)phenyl]-2-ethoxy-5-{[5-(methoxymethyl)-1H-1,2,4-triazol-1-yl]methyl}pyridine]	100 to 1000
COc1ncc(Cn2cc(Cl)cn2)cc1-c1cccc(OC(F)F)c1 [Example 167, 5-[(4-Chloro-1H-pyrazol-1-yl)methyl]-3-[3-(difluoromethoxy)phenyl]-2-methoxypyridine]	100 to 1000
CCOc1ncc(Cn2ccc(C(N)=O)n2)cc1-c1cccc(Cl)c1 [Example 168, 1-{[5-(3-Chlorophenyl)-6-ethoxypyridin-3-yl]methyl}-1H-pyrazole-3-carboxamide]	< 100
CCOC(=O)c1cnn(Cc2cnc(OC)c(-c3cccc(Cl)c3)c2)c1 [Example 169, Ethyl 1-{[5-(3-chlorophenyl)-6-methoxypyridin-3-yl]methyl}-1H-pyrazole-4-carboxylate]	1000 to 10000
COc1ncc(Cn2cc(C#N)cn2)cc1-c1cccc(Cl)c1 [Example 170, 1-{[5-(3-Chlorophenyl)-6-methoxypyridin-3-yl]methyl}-1H-pyrazole-4-carbonitrile]	100 to 1000
COc1ncc(Cn2cncn2)cc1-c1ccncc1 [Example 171, 2-Methoxy-3-(pyridin-4-yl)-5-(1H-1,2,4-triazol-1-ylmethyl)pyridine]	100 to 1000
COc1ncc(Cn2cc(NC(C)=O)cn2)cc1-c1cccc(Cl)c1 [Example 172, N-(1-{[5-(3-Chlorophenyl)-6-methoxypyridin-3-yl]methyl}-1H-pyrazol-4-yl)acetamide]	1000 to 10000
COc1ncc(Cn2ccnc2)cc1-c1cccc(Cl)c1 [Example 173, 3-(3-Chlorophenyl)-5-(1H-imidazol-1-ylmethyl)-2-methoxypyridine]	< 100
Fc1cccc(-c2cc(Cn3cncn3)cnc2OC(F)F)c1 [Example 174, 2-(Difluoromethoxy)-3-(3-fluorophenyl)-5-(1H-1,2,4-triazol-1-ylmethyl)pyridine]	< 100
COc1cccc(-c2cc(Cn3cncn3)cnc2OC(F)F)c1 [Example 175, 2-(Difluoromethoxy)-3-(3-methoxyphenyl)-5-(1H-1,2,4-triazol-1-ylmethyl)pyridine]	> 10000
FC(F)Oc1ncc(Cn2cncn2)cc1-c1cccc(OC(F)(F)F)c1 [Example 176, 2-(Difluoromethoxy)-5-(1H-1,2,4-triazol-1-ylmethyl)-3-[3-(trifluoromethoxy)phenyl]pyridine]	100 to 1000
COc1ncc(Cn2ccccc2=O)cc1-c1cccc(Cl)c1 [Example 177, 1-{[5-(3-Chlorophenyl)-6-methoxypyridin-3-yl]methyl}-1,2-dihydropyridin-2-one]	1000 to 10000
COc1ncc(Cn2cc(Cl)cn2)cc1-c1cccc(Cl)c1 [Example 178, 5-[(4-Chloro-1H-pyrazol-1-yl)methyl]-3-(3-chlorophenyl)-2-methoxypyridine]	100 to 1000
COc1ncc(Cn2cc(C)cn2)cc1-c1cccc(Cl)c1 [Example 179, 3-(3-Chlorophenyl)-2-methoxy-5-[(4-methyl-1H-pyrazol-1-yl)methyl]pyridine]	100 to 1000
